According to patent US10016382B2, “Method for decreasing skeletal muscle damage and/or oxidative stress in mammals” (LONZA INC., priority 2014, dated 2018):
Marks after values point to notes of the source that are not given here.

Key:
Assay type in all cases: in vivo, dog
Labrador Retrievers = experiment: Activity (APM, APM/kg) by Actical monitor and GPS collar, Example 2 part one; conditions: for APM / APM/kg: crossover L-carnitine dogs
Text: Both the L-carnitine and control performance dogs were put through a weekly running program consisting of two evenly distributed endurance runs. Groups ranging between 6 and 10 dogs were run together, including both treatments in each group. The endurance runs increased incrementally by 0.5 miles per week (5 miles/session increasing to 10 miles per session over an 11 week period). The dogs were allowed a 1 day rest between runs and a 3 day rest before a scheduled exercise distance increase. The dogs were put through maintenance runs of 5 miles twice in the 12th week and then 2 miles twice in the 13th week. All dogs had at least 4 days of rest prior to the final 15 miles run in the 14th week. The first exercise session during the week consisted only of endurance style running, while the second session included short 100 m sprints at each mile interval in order to incorporate measurable anaerobic exercise into the weekly regimen. The endurance runs were slightly slower to enhance fat oxidation and represent an exercise intensity equivalent to 50%-65% VO2 max. Each performance dog wore the Actical activity monitor and GPS tracking collar during the last 15 mile endurance run. The final run was conducted in a manner analogous to that of Example 1. All activity was accurately and precisely calculated using the GPS tracking monitors. Immediately following the 15 mile endurance run, each dog was placed in a kennel and evaluated for recovery time in body temperature (every 15 minutes for 2 hours) and heart rate (every 2 minutes for up to 20 minutes until basal beats per minute (BPM) was reached). Body temperature and heart rate were measured as described in Example 1.

creatine kinase = experiment: Serum creatine kinase, Example 2 part one; conditions: for Creatine Kinase: serum
Method: Twenty-four hours after test dogs ran the last 15 mile endurance run, serum samples were taken to evaluate biomarkers for muscle damage and antioxidant status. Blood samples were taken 1) just prior to the beginning of the study; 2) 1 day prior to running the final 15 mile run on the 14th week; 3) 1 hour immediately following the 15 mile run; and 4) 24 hours following the final 15 mile run. After a blood sample was drawn, it was allowed to clot for 30 minutes at 25° C. before being centrifuged for 15 minutes at 2000 g at 4° C. Serum was aliquoted into 0.65 mL microcentrifuge tubes and stored at −80° C. until being assayed at the end of the study for creatine kinase, canine myoglobin, thiobarbituric acid reactive substances (TBARS), and total antioxidant capacity (TAC) using the commercially available kits described in Example 1.

skeletal muscle = experiment: Fractional breakdown rate (FBR) of skeletal muscle, 3-methylhistidine, Example 2 part two; conditions: for FBR: run, muscle samples
Text: Twenty-six Labrador Retrievers ranging in age from 1.5 to 4.5 years were chosen from part one of the study and were fed for an additional 60 days following the termination of part one of the study. Test dogs remained in their previous treatment groups. Measurements on Actical movements/kg BW/mile endurance runs obtained during part one of the study were utilized to ensure that both the control and the L-carnitine groups were equal for performance potential. The lean body mass of the test dogs was determined by scanning with the DEXA as an additional measure for ensuring equal groups. Twelve dogs (6 males and 6 females) were assigned to each treatment group. Two additional dogs (1 male and 1 female) were fed the low carnitine basal diet of the control group and were used as controls that were not enriched with isotopes during the study; these two control dogs were used to measure the natural amount of 15N Phe in the sample. During the 60 day trial, the test dogs were fed low-carnitine basal diets with or without L-carnitine supplementation in a manner analogous to that of part one of the study. For three days prior to the final muscle biopsy and blood collection, all test dogs were feed an “all vegetarian plus egg” diet from Purina LabDiet that had nutrient specifications that were equivalent to that of the low carnitine basal diet. […] At the end of the 60 day training program, 24 of the dogs (12 resting and 12 running) were infused with a bolus dose of 15N Phe. […] Forty-five minutes after infusion, a 5 mm Bergstrom muscle biopsy needle was used to take a biopsy of the biceps femoris muscle. The muscle samples were quickly frozen in liquid nitrogen and placed in a −80° C. freezer for later analysis]. Twenty-four hours after the resting dogs were infused with 15N Phe, the remaining 12 dogs (6 non-carnitine; 3 male and 3 female and 6 L-carnitine; 3 male and 3 female) were run for a 15 mile endurance run. Following a 30 minute period of measured physiological recovery (heart rate and body temperature), test dogs that completed the 15 mile run were infused with a 2% 15N Phe solution as described above; muscle biopsies were taken 45 minutes after infusion. Blood samples were taken from the carotid artery for each test dog and analyzed for 3 MH. Three days prior to taking the blood samples, the dogs were fed the “all vegetable plus egg” non-meat diet from Purina LabDiet to ensure that the 3 MH found in the blood represented the skeletal muscle protein breakdown. To process the samples, the acid-soluble fraction containing free amino acids was removed by addition of 2% (w/v) perchloric acid. After homogenization, samples were centrifuged at 3,000×g, and the supernatant, containing free amino acids, was removed. The protein precipitate was washed three times with 2% perchloric acid before being hydrolyzed in 6N HCL. The supernatant and precipitate, respectively, were then run through an ion-exchange column packed with Dowex 50WX8-200. Phenylalanine and 3-methylhistidine (3-MH) were eluted with 2 mL of 4N NH4OH and 1 mL of nanopure H2O into a new vial and then dried under vacuum. The tert-butyldimethylsilyl (tBDMS) derivative was formed by adding 800 μL of C2CH3CN-MTBSTFA (1:1) and incubating at 110° C. for 60 minutes. The same mass spectrometer was used to determine 3-MH. […] The 238 m/z fragment of 3-MH was monitored. The muscle samples were analyzed for the fractional breakdown rate (FBR). FBR was calculated as kd=3-MH daily excretion/3-MH muscle pool×100. […]

[1] = Ex.2 part one, 250 mg/d, 19 L-carnitine dogs that were control dogs in Example 1
[2] = data collected in Example 1 (then control dogs)

C[N+](C)(C)C[C@H](O)CC(=O)[O-] [L-carnitine]
Crossover activity gain, APM (Labrador Retrievers; [1]): 27,697 | Crossover activity gain, APM/kg (Labrador Retrievers; [1]): 975 | APM (Labrador Retrievers; Example 2 part one, 250 mg/d): 63,272 | APM/kg (Labrador Retrievers; Example 2 part one, 250 mg/d): 2274 | APM (Labrador Retrievers; [2]): 37,621 | APM/kg (Labrador Retrievers; [2]): 1363 | CK increase from pre-run values (creatine kinase; Ex.2 part one, 250 mg/d, 1 hour post-endurance run): 10.81 units | CK values, serum (creatine kinase; Ex.2 part one, 250 mg/d, 1 hour post-run): 26.39 mU/mL | CK values, serum (creatine kinase; Ex.2 part one, 250 mg/d, 24 hour post-run): 23.06 mU/mL | Creatine Kinase (creatine kinase; FEMALES, Baseline): 26.44 ± 3.08 mU · mL | Creatine Kinase (creatine kinase; FEMALES, Post-Run 1 Hr): 26.8 ± 1.36 mU · mL | Creatine Kinase (creatine kinase; FEMALES, Post-Run 24 Hr): 21.71 ± 0.79 mU · mL | Creatine Kinase (creatine kinase; FEMALES, Pre-Run): 17.14 ± 1.96 mU · mL | Creatine Kinase (creatine kinase; MALES, Baseline): 20.81 ± 2.98 mU/mL | Creatine Kinase (creatine kinase; MALES, Post-Run 1 Hr): 25.98 ± 1.39 mU/mL | Creatine Kinase (creatine kinase; MALES, Post-Run 24 Hr): 24.4 ± 1.53 mU/mL | Creatine Kinase (creatine kinase; MALES, Pre-Run): 14.02 ± 1.98 mU/mL | Creatine Kinase (creatine kinase; Whole Groups, Baseline): 23.63 ± 2.17 mU/mL | Creatine Kinase (creatine kinase; Whole Groups, Post-Run 1 Hr, Post-Run 1 Hr): 26.39 ± 0.96 mU/mL | Creatine Kinase (creatine kinase; Whole Groups, Post-Run 24 Hr, Post-Run 24 Hr): 23.06 ± 0.88 mU/mL | Creatine Kinase (creatine kinase; Whole Groups, Pre-Run): 15.58 ± 1.4 mU/mL | Fractional Breakdown Rate (FBR) of muscle samples (skeletal muscle; Ex.2 part two, 250 mg/d, adjusted for gender and exercise state): 1.92% | FBR (% protein breakdown rate/day) of skeletal muscle (skeletal muscle; Ex.2 part two, 250 mg/d, exercised females (15 mile endurance run)): 3.26% | FBR of skeletal proteins (skeletal muscle; Ex.2 part two, 250 mg/d, running males): 1.26% | FBR (skeletal muscle; Female): 3.26^a % | FBR (skeletal muscle; Male): 1.26^a %
